# Measured values reported in patent publication US20140243239A1, “MULTIPLEXED KINASE INHIBITOR BEADS AND USES THEREOF” (University of North Carolina at Chapel Hill, priority 2011, published 2014).
# Assays:
# PDX P100422 = assay: Tumor growth of pancreatic cancer PDX P100422; assay type: in vivo, mice
# Text: (§1) Kinome reprogramming in PDX models: De-identified tumors from patients are grafted into immunecompromised mice and passaged. All tumors are characterized using microarray and mutational analysis. Hematoxylin & eosin staining of a patient tumor at the time of operation and after several passages over a 1.5 yr period showing similar glandular architecture with surrounding stroma. Variable levels of pERK1/2 and pAKT(S473) was seen across pancreatic cancer PDX. PDX P100422 with moderate levels of pAKT was selected for BKM120 treatment. pAKT expression in BKM120 versus vehicle treated PDX tumor. Mice were treated daily with either vehicle control (n=3) or BKM120 (n=3) and tumors were harvested 4-6 h after the last dose. PDX tumors were treated daily for 28 days. […] The 3 vehicle control and 3 BKM120 treated tumors showing inhibition of pAKT were analyzed using MIB/MS. Activation and repression of the kinome in response to PI3K inhibition in PDX P100422.
# AKT = AKT phosphorylation in pancreatic cancer PDX tumors; assay type: in vivo, mice; settings: daily treatment, harvested 4-6 h after last dose
# Method: as §1, with “Kinome reprogramming in PDX model of pancreatic cancer after BKM120 treatment: The kinome response of a pancreatic cancer PDX to BKM120 treatment was evaluated using MIB/MS. […] Kinome” for “Kinome”
# MEK-ERK pathway = assay: Window trial in TNBC patients (LCCC 1122), MIB/MS of tumor biopsies; assay type: in vivo, human; settings: 7-day post-treatment versus pre-treatment biopsy, preliminary
# Text: Kinome reprogramming in TNBC patients treated with the MEK inhibitor GSK1120212 is being evaluated (LCCC 1122).
# MEK1 = MEK1 activation in HPAC pancreatic cancer cells; assay type: cell-based
# Method: Kinome reprogramming in pancreatic cancer—cell type and inhibitor specific. The kinome response to drug in 3 pancreatic cancer cell lines (HPAC, AsPC-1, HPAF-II) was also evaluated using 3 kinase inhibitors that are currently in Phase I/II clinical trials: BKM120 (Novartis), an oral pan-class 1 PI3K inhibitor, […] (Glaxo Smith-Kline), an ATP competitive PI3K/mTOR inhibitor, and GSK1120212, a reversible allosteric inhibitor of MEK1/2 (Glaxo Smith-Kline). The kinome response for GSK2126458 and GSK1120212 was compared using MIB/MS and RTK arrays to determine if kinome reprogramming was inhibitor-specific. […] Thus, kinome reprogramming is target-specific.
# MEK = settings: Gilmartin et al. 2011; cited from earlier work
# BT474 cells = assay: BT474 luminescent cell viability assay; assay type: cell-based; settings: 50 nM lapatinib, 0-72 hours
# Method: The different colors represent different time points of (50 nM) lapatinib treatment relative to DMSO control-treated cells. From light to dark, the time points are 4, 24, and 48 hrs of lapatinib treatment.
smiles,measurement,setting,value
Nc1cc(C(F)(F)F)c(-c2cc(N3CCOCC3)nc(N3CCOCC3)n2)cn1 [BKM120],effectiveness in the PDX model,PDX P100422; small sample size,not clearly effective
same,number of tumors showing tumor growth inhibition relative to controls,PDX P100422; treated daily for 28 days,4 tumors
same,AKT phosphorylation,AKT,inhibited AKT phosphorylation
CC(=O)Nc1cccc(-n2c(=O)n(C3CC3)c(=O)c3c(Nc4ccc(I)cc4F)n(C)c(=O)c(C)c32)c1 [GSK1120212],MEK-ERK pathway in patient tumors,MEK-ERK pathway,effectively inhibited
same,kinome reprogramming in patient tumors,MEK-ERK pathway,"upregulation of MRCKG, FER and DDR1"
same,MEK1 activation,MEK1,inhibited MEK1 activation
same,fold lower affinity of MEK phosphorylated at the activation loop serines than nonphosphorylated MEK,MEK,20 fold
CS(=O)(=O)CCNCc1ccc(-c2ccc3ncnc(Nc4ccc(OCc5cccc(F)c5)c(Cl)c4)c3c2)o1 [lapatinib],growth of BT474 cells,BT474 cells,growth inhibition
